Assay results as given in patent US9603364B2 (Dow AgroSciences LLC, priority 2013, dated 2017).

Key:
Assay in all cases: General post-emergent herbicidal activity, foliar application
Format in all cases: in vivo
Oryza sativa L. (rice) = settings: Oryza sativa, 336 h, scored after 14 days, read-out: % Visual Growth Reduction ORYSA
Method: (§1) A weighed amount, determined by the highest rate to be tested, of each test compound was placed in a 25 mL glass vial and was dissolved in 4 mL of a 97:3 v/v (volume/volume) mixture of acetone and dimethyl sulfoxide to obtain concentrated stock solutions which will be referred to as General Purpose Solvent. […] The concentrated stock solutions obtained were diluted with 20 mL of an aqueous mixture containing water, General Purpose Solvent, isopropyl alcohol, Atplus 411F crop oil concentrate, and Triton X-155 surfactant in a 46:42:12:1.0:0.02 v/v ratio to obtain spray solutions containing the highest application rates. Additional application rates were obtained by serial dilution of 12 mL of the high rate solution into a solution containing 2 mL of 97:3 v/v (volume/volume) mixture of acetone and dimethyl sulfoxide and 10 mL of an aqueous mixture containing water, General Purpose Solvent, isopropyl alcohol, Atplus 411F crop oil concentrate, and Triton X-155 surfactant in a 46:42:12:1.0:0.02 v/v ratio to obtain 1/2×, 1/4×, 1/8× and 1/16× rates of the high rate. […] Control plants were sprayed in the same manner with the solvent blank.
(§2) The treated plants and control plants were placed in a greenhouse as described above and watered by sub-irrigation to prevent wash-off of the test compounds. After 14 days, the condition of the test plants as compared with that of the untreated plants was determined visually and scored on a scale of 0 to 100 percent where 0 corresponds to no injury and 100 corresponds to complete kill.

Zea mays L. (corn) = settings: 336 h, scored after 14 days, read-out: % Visual Growth Reduction ZEAMX
Method: as §1, §2

[1] = tested on: Chenopodium album L. (lambsquarters, common); settings: for GR80 Value CHEAL: calculated by probit analysis, dose for 80% visual injury, may be extrapolated
Method: as §1, §2
(§3) By applying the well-accepted probit analysis as described by J. Berkson in […], 48, 565 (1953) and by D. Finney in “Probit Analysis” Cambridge University Press (1952), the dose response data gathered as expressed above can be used to calculate GR20, GR50 and GR80 values, which are defined as growth reduction factors that correspond to the effective dose of herbicide required to kill or control 20 percent, 50 percent or 80 percent, respectively, of a target plant. Data not expressed in Table A may have been used to calculate some of the GR80 values in Table B. In some cases, the GR80 values may be extrapolations calculated based on the slope of the dose response curve for individual compounds listed in Table B.

[2] = tested on: Euphorbia heterophylla L. (poinsettia, wild); settings: for GR80 Value EPHHL: calculated by probit analysis, dose for 80% visual injury, may be extrapolated
Method: as §1, §2, §3

[3] = tested on: Viola tricolor L. (pansy); settings: for GR80 Value VIOTR: calculated by probit analysis, dose for 80% visual injury, may be extrapolated
Method: as §1, §2, §3

[4] = tested on: Amaranthus retroflexus L. (pigweed, redroot); settings: for GR80 Value AMARE: calculated by probit analysis, dose for 80% visual injury, may be extrapolated
Method: as §1, §2, §3

[5] = tested on: Helianthus annuus L. (sunflower, common); settings: for GR80 Value HELAN: calculated by probit analysis, dose for 80% visual injury, may be extrapolated
Method: as §1, §2, §3

[6] = tested on: Echinochloa crus-galli (L.) Beauv. (barnyardgrass); settings: for GR80 Value ECHCG: calculated by probit analysis, dose for 80% visual injury, may be extrapolated
Method: as §1, §2, §3

COC(=O)c1nc(C(C)(C)F)c(F)c(N)c1Cl [Compound F8, Methyl 4-amino-3-chloro-5-fluoro-6-(2-fluoropropan-2-yl)picolinate]
plant injury at 40 g/ha (Oryza sativa L. (rice); 40 g ai/ha): 0%
plant injury at 80 g/ha (Oryza sativa L. (rice); 80 g ai/ha): 0%
plant injury at 160 g/ha (Oryza sativa L. (rice); 160 g ai/ha): 8%
plant injury at 40 g/ha (Zea mays L. (corn); 40 g ai/ha): 0%
plant injury at 80 g/ha (Zea mays L. (corn); 80 g ai/ha): 0%
plant injury at 160 g/ha (Zea mays L. (corn); 160 g ai/ha): 0%
pest or weed control at 40 g/ha ([1]; Chenopodium album, 336 h, 40 g ai/ha, foliar post-emergent, scored after 14 days, read-out: % Visual Growth Reduction CHEAL): 90%
pest or weed control at 80 g/ha ([1]; Chenopodium album, 336 h, 80 g ai/ha, foliar post-emergent, scored after 14 days, read-out: % Visual Growth Reduction CHEAL): 90%
pest or weed control at 160 g/ha ([1]; Chenopodium album, 336 h, 160 g ai/ha, foliar post-emergent, scored after 14 days, read-out: % Visual Growth Reduction CHEAL): 90%
GR80 Value CHEAL [1]: 36.9 g ai/ha
pest or weed control at 40 g/ha ([2]; Euphorbia heterophylla, 336 h, 40 g ai/ha, foliar post-emergent, scored after 14 days, read-out: % Visual Growth Reduction EPHHL): 90%
pest or weed control at 80 g/ha ([2]; Euphorbia heterophylla, 336 h, 80 g ai/ha, foliar post-emergent, scored after 14 days, read-out: % Visual Growth Reduction EPHHL): 100%
pest or weed control at 160 g/ha ([2]; Euphorbia heterophylla, 336 h, 160 g ai/ha, foliar post-emergent, scored after 14 days, read-out: % Visual Growth Reduction EPHHL): 100%
GR80 Value EPHHL [2]: 17.9 g ai/ha
pest or weed control at 40 g/ha ([3]; Viola tricolor, 336 h, 40 g ai/ha, foliar post-emergent, scored after 14 days, read-out: % Visual Growth Reduction VIOTR): 10%
pest or weed control at 80 g/ha ([3]; Viola tricolor, 336 h, 80 g ai/ha, foliar post-emergent, scored after 14 days, read-out: % Visual Growth Reduction VIOTR): 50%
pest or weed control at 160 g/ha ([3]; Viola tricolor, 336 h, 160 g ai/ha, foliar post-emergent, scored after 14 days, read-out: % Visual Growth Reduction VIOTR): 70%
GR80 Value VIOTR [3]: 185 g ai/ha
pest or weed control at 40 g/ha ([4]; Amaranthus retroflexus, 336 h, 40 g ai/ha, foliar post-emergent, scored after 14 days, read-out: % Visual Growth Reduction AMARE): 90%
pest or weed control at 80 g/ha ([4]; Amaranthus retroflexus, 336 h, 80 g ai/ha, foliar post-emergent, scored after 14 days, read-out: % Visual Growth Reduction AMARE): 100%
pest or weed control at 160 g/ha ([4]; Amaranthus retroflexus, 336 h, 160 g ai/ha, foliar post-emergent, scored after 14 days, read-out: % Visual Growth Reduction AMARE): 100%
GR80 Value AMARE [4]: 25.1 g ai/ha
pest or weed control at 40 g/ha ([5]; Helianthus annuus, 336 h, 40 g ai/ha, foliar post-emergent, scored after 14 days, read-out: % Visual Growth Reduction HELAN): 90%
pest or weed control at 80 g/ha ([5]; Helianthus annuus, 336 h, 80 g ai/ha, foliar post-emergent, scored after 14 days, read-out: % Visual Growth Reduction HELAN): 90%
pest or weed control at 160 g/ha ([5]; Helianthus annuus, 336 h, 160 g ai/ha, foliar post-emergent, scored after 14 days, read-out: % Visual Growth Reduction HELAN): 90%
GR80 Value HELAN [5]: 18.6 g ai/ha
pest or weed control at 40 g/ha ([6]; Echinochloa crus-galli, 336 h, 40 g ai/ha, foliar post-emergent, scored after 14 days, read-out: % Visual Growth Reduction ECHCG): 0%
pest or weed control at 80 g/ha ([6]; Echinochloa crus-galli, 336 h, 80 g ai/ha, foliar post-emergent, scored after 14 days, read-out: % Visual Growth Reduction ECHCG): 0%
pest or weed control at 160 g/ha ([6]; Echinochloa crus-galli, 336 h, 160 g ai/ha, foliar post-emergent, scored after 14 days, read-out: % Visual Growth Reduction ECHCG): 50%
GR80 Value ECHCG [6]: 213 g ai/ha

COC(=O)c1nc(C(C)(C)F)cc(N)c1Cl [Compound F9, methyl 4-amino-3-chloro-6-(2-fluoropropan-2-yl)picolinate]
plant injury at 70 g/ha (Oryza sativa L. (rice); 70 g ai/ha): 0%
plant injury at 140 g/ha (Oryza sativa L. (rice); 140 g ai/ha): 0%
plant injury at 70 g/ha (Zea mays L. (corn); 70 g ai/ha): 0%
plant injury at 140 g/ha (Zea mays L. (corn); 140 g ai/ha): 15%
pest or weed control at 70 g/ha ([1]; Chenopodium album, 336 h, 70 g ai/ha, foliar post-emergent, scored after 14 days, read-out: % Visual Growth Reduction CHEAL): 70%
pest or weed control at 140 g/ha ([1]; Chenopodium album, 336 h, 140 g ai/ha, foliar post-emergent, scored after 14 days, read-out: % Visual Growth Reduction CHEAL): 85%
GR80 Value CHEAL [1]: 110 g ai/ha
pest or weed control at 70 g/ha ([2]; Euphorbia heterophylla, 336 h, 70 g ai/ha, foliar post-emergent, scored after 14 days, read-out: % Visual Growth Reduction EPHHL): 85%
pest or weed control at 140 g/ha ([2]; Euphorbia heterophylla, 336 h, 140 g ai/ha, foliar post-emergent, scored after 14 days, read-out: % Visual Growth Reduction EPHHL): 100%
GR80 Value EPHHL [2]: 49.4 g ai/ha
pest or weed control at 70 g/ha ([3]; Viola tricolor, 336 h, 70 g ai/ha, foliar post-emergent, scored after 14 days, read-out: % Visual Growth Reduction VIOTR): 40%
pest or weed control at 140 g/ha ([3]; Viola tricolor, 336 h, 140 g ai/ha, foliar post-emergent, scored after 14 days, read-out: % Visual Growth Reduction VIOTR): 30%
GR80 Value VIOTR [3]: >140 g ai/ha
pest or weed control at 70 g/ha ([4]; Amaranthus retroflexus, 336 h, 70 g ai/ha, foliar post-emergent, scored after 14 days, read-out: % Visual Growth Reduction AMARE): 100%
pest or weed control at 140 g/ha ([4]; Amaranthus retroflexus, 336 h, 140 g ai/ha, foliar post-emergent, scored after 14 days, read-out: % Visual Growth Reduction AMARE): 100%
GR80 Value AMARE [4]: 13.7 g ai/ha
pest or weed control at 70 g/ha ([5]; Helianthus annuus, 336 h, 70 g ai/ha, foliar post-emergent, scored after 14 days, read-out: % Visual Growth Reduction HELAN): 50%
pest or weed control at 140 g/ha ([5]; Helianthus annuus, 336 h, 140 g ai/ha, foliar post-emergent, scored after 14 days, read-out: % Visual Growth Reduction HELAN): 50%
GR80 Value HELAN [5]: 237 g ai/ha
pest or weed control at 70 g/ha ([6]; Echinochloa crus-galli, 336 h, 70 g ai/ha, foliar post-emergent, scored after 14 days, read-out: % Visual Growth Reduction ECHCG): 0%
pest or weed control at 140 g/ha ([6]; Echinochloa crus-galli, 336 h, 140 g ai/ha, foliar post-emergent, scored after 14 days, read-out: % Visual Growth Reduction ECHCG): 0%
GR80 Value ECHCG [6]: >140 g ai/ha
